According to patent US9944602B2, “Piperidinone herbicides” (E. I. DU PONT DE NEMOURS AND COMPANY, priority 2014, dated 2018):

Experiments:
[1] = test system: ryegrass, Italian (Italian ryegrass, Lolium multiflorum); assay: Test A postemergence ryegrass, Italian; assay type: in vivo; conditions: Lolium multiflorum, post-emergence, 240 h, 0 to 100 scale, 0 is no effect, 100 is complete control, read-out: Plant response rating, Ryegrass, Italian; for pest or weed control at 125 g/ha: 125 g ai/ha; for pest or weed control at 500 g/ha: 500 g ai/ha
In short: (§1)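 Scores reflect visual comparison with untreated controls after ~10 d in the greenhouse (0 none, 100 complete control). Treatment was a surfactant-containing non-phytotoxic solvent formulation, sprayed onto soil after seeding or onto seedlings at one to two leaves, 2–10 cm tall.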

[2] = test system: ryegrass, Italian (Italian ryegrass, Lolium multiflorum); assay: Test A preemergence ryegrass, Italian; assay type: in vivo; conditions: Lolium multiflorum, pre-emergence, 240 h, 0 to 100 scale, 0 no effect, 100 complete control, read-out: Ryegrass, Italian plant response rating; for pest or weed control at 125 g/ha: 125 g ai/ha; for pest or weed control at 500 g/ha: 500 g ai/ha
In short: as §1

[3] = test system: barnyardgrass (Echinochloa crus-galli); assay: Test B flooded paddy test barnyardgrass; assay type: in vivo; conditions: Echinochloa crus-galli, Table B, Flood, 250 g ai/ha, scale 0 to 100, read-out: Plant response rating
In short: (§2)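 Once seedlings reached two leaves, pots were flooded 3 cm deep and treated via the paddy water, which remained at that level. Evaluation was visual, against controls, after 13 to 15 d under greenhouse conditions.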

[4] = test system: kochia (Kochia scoparia); assay: Test A preemergence kochia; assay type: in vivo; conditions: Bassia scoparia, pre-emergence, 240 h, 0 to 100 scale, 0 no effect, 100 complete control, read-out: Kochia plant response rating; for pest or weed control at 125 g/ha: 125 g ai/ha; for pest or weed control at 500 g/ha: 500 g ai/ha
In short: as §1

[5] = test system: kochia (Kochia scoparia); assay: Test A postemergence kochia; assay type: in vivo; conditions: Bassia scoparia, post-emergence, 240 h, 0 to 100 scale, 0 is no effect, 100 is complete control, read-out: Plant response rating, Kochia; for pest or weed control at 125 g/ha: 125 g ai/ha; for pest or weed control at 500 g/ha: 500 g ai/ha
In short: as §1

[6] = test system: galium (catchweed bedstraw, Galium aparine); assay: Test A postemergence galium; assay type: in vivo; conditions: Galium, post-emergence, 240 h, 0 to 100 scale, 0 is no effect, 100 is complete control, read-out: Plant response rating, Galium; for pest or weed control at 125 g/ha: 125 g ai/ha; for pest or weed control at 500 g/ha: 500 g ai/ha
In short: as §1

[7] = test system: wheat (Triticum aestivum); assay: Test A postemergence wheat; assay type: in vivo; conditions: Triticum aestivum, post-emergence, 240 h, 0 to 100 scale, 0 is no effect, 100 is complete control, read-out: Plant response rating, Wheat; for plant injury at 125 g/ha: 125 g ai/ha; for plant injury at 500 g/ha: 500 g ai/ha
In short: as §1

[8] = test system: rice (Oryza sativa); assay: Test B flooded paddy test rice; assay type: in vivo; conditions: Oryza sativa, Table B, Flood, 250 g ai/ha, scale 0 to 100, read-out: Plant response rating
In short: as §2

[9] = test system: pigweed (Amaranthus retroflexus); assay: Test A preemergence pigweed; assay type: in vivo; conditions: Amaranthus retroflexus, pre-emergence, 240 h, 0 to 100 scale, 0 no effect, 100 complete control, read-out: Pigweed plant response rating; for pest or weed control at 125 g/ha: 125 g ai/ha; for pest or weed control at 500 g/ha: 500 g ai/ha
In short: as §1

[10] = test system: foxtail, giant (giant foxtail, Setaria faberii); assay: Test A postemergence foxtail, giant; assay type: in vivo; conditions: Setaria faberi, post-emergence, 240 h, 0 to 100 scale, 0 is no effect, 100 is complete control, read-out: Plant response rating, Foxtail, Giant; for pest or weed control at 125 g/ha: 125 g ai/ha; for pest or weed control at 500 g/ha: 500 g ai/ha
In short: as §1

[11] = test system: ragweed (common ragweed, Ambrosia elatior); assay: Test A preemergence ragweed; assay type: in vivo; conditions: Ambrosia artemisiifolia, pre-emergence, 240 h, 0 to 100 scale, 0 no effect, 100 complete control, read-out: Ragweed plant response rating; for pest or weed control at 125 g/ha: 125 g ai/ha; for pest or weed control at 500 g/ha: 500 g ai/ha
In short: as §1

[12] = test system: sedge, umbrella (small-flower umbrella sedge, Cyperus difformis); assay: Test B flooded paddy test sedge, umbrella; assay type: in vivo; conditions: Cyperus difformis, Table B, Flood, 250 g ai/ha, scale 0 to 100, read-out: Plant response rating
In short: as §2

[13] = test system: pigweed (Amaranthus retroflexus); assay: Test A postemergence pigweed; assay type: in vivo; conditions: Amaranthus retroflexus, post-emergence, 240 h, 0 to 100 scale, 0 is no effect, 100 is complete control, read-out: Plant response rating, Pigweed; for pest or weed control at 125 g/ha: 125 g ai/ha; for pest or weed control at 500 g/ha: 500 g ai/ha
In short: as §1

[14] = test system: ducksalad (Heteranthera limosa); assay: Test B flooded paddy test ducksalad; assay type: in vivo; conditions: Heteranthera limosa, Table B, Flood, 250 g ai/ha, scale 0 to 100, read-out: Plant response rating
In short: as §2

[15] = test system: ragweed (common ragweed, Ambrosia elatior); assay: Test A postemergence ragweed; assay type: in vivo; conditions: Ambrosia artemisiifolia, post-emergence, 240 h, 0 to 100 scale, 0 is no effect, 100 is complete control, read-out: Plant response rating, Ragweed; for pest or weed control at 125 g/ha: 125 g ai/ha; for pest or weed control at 500 g/ha: 500 g ai/ha
In short: as §1

[16] = test system: foxtail, giant (giant foxtail, Setaria faberii); assay: Test A preemergence foxtail, giant; assay type: in vivo; conditions: Setaria faberi, pre-emergence, 240 h, 0 to 100 scale, 0 no effect, 100 complete control, read-out: Foxtail, Giant plant response rating; for pest or weed control at 125 g/ha: 125 g ai/ha; for pest or weed control at 500 g/ha: 500 g ai/ha
In short: as §1

[17] = test system: barnyardgrass (Echinochloa crus-galli); assay: Test A postemergence barnyardgrass; assay type: in vivo; conditions: Echinochloa crus-galli, post-emergence, 240 h, 0 to 100 scale, 0 is no effect, 100 is complete control, read-out: Plant response rating, Barnyardgrass; for pest or weed control at 125 g/ha: 125 g ai/ha; for pest or weed control at 500 g/ha: 500 g ai/ha
In short: as §1

[18] = test system: corn (Zea mays); assay: Test A postemergence corn; assay type: in vivo; conditions: Zea mays, post-emergence, 240 h, 0 to 100 scale, 0 is no effect, 100 is complete control; for Corn plant response rating (crop injury, 0 = no effect, 100 = complete kill) at 125 g/ha: 125 g ai/ha; for Corn plant response rating (crop injury, 0 = no effect, 100 = complete kill) at 500 g/ha: 500 g ai/ha
In short: as §1

[19] = test system: blackgrass (Alopecurus myosuroides); assay: Test A postemergence blackgrass; assay type: in vivo; conditions: Alopecurus myosuroides, post-emergence, 240 h, 0 to 100 scale, 0 is no effect, 100 is complete control, read-out: Plant response rating, Blackgrass; for pest or weed control at 125 g/ha: 125 g ai/ha; for pest or weed control at 500 g/ha: 500 g ai/ha
In short: as §1

[20] = test system: barnyardgrass (Echinochloa crus-galli); assay: Test A preemergence barnyardgrass; assay type: in vivo; conditions: Echinochloa crus-galli, pre-emergence, 240 h, 0 to 100 scale, 0 no effect, 100 complete control, read-out: Barnyardgrass plant response rating; for pest or weed control at 125 g/ha: 125 g ai/ha; for pest or weed control at 500 g/ha: 500 g ai/ha
In short: as §1

O=C1NCCC(c2cccc(C(F)F)c2)C1C(=O)Nc1cccc(F)c1F (centres unmarked) [Compound 49, 4-[3-(difluoromethyl)phenyl]-N-(2,3-difluorophenyl)-2-oxo-3-piperidinecarboxamide]
30%: plant injury at 500 g/ha [7]
80%: pest or weed control at 125 g/ha [10] | pest or weed control at 500 g/ha [10] | pest or weed control at 125 g/ha [17] | pest or weed control at 125 g/ha [20]
50%: Corn plant response rating (crop injury, 0 = no effect, 100 = complete kill) at 500 g/ha [18] | pest or weed control at 500 g/ha [19]
70%: pest or weed control at 250 g/ha [3]
134 to 137 °C: melting point
60%: pest or weed control at 500 g/ha [2]
100%: pest or weed control at 250 g/ha [14]
0%: pest or weed control at 125 g/ha [1] | pest or weed control at 500 g/ha [1] | pest or weed control at 125 g/ha [2] | pest or weed control at 125 g/ha [4] | pest or weed control at 500 g/ha [4] | pest or weed control at 125 g/ha [5] | pest or weed control at 500 g/ha [5] | pest or weed control at 125 g/ha [6] | pest or weed control at 500 g/ha [6] | plant injury at 125 g/ha [7] | plant injury at 250 g/ha [8] | pest or weed control at 125 g/ha [9] | pest or weed control at 500 g/ha [9] | pest or weed control at 125 g/ha [11] | pest or weed control at 500 g/ha [11] | pest or weed control at 250 g/ha [12] | pest or weed control at 125 g/ha [13] | pest or weed control at 500 g/ha [13] | pest or weed control at 125 g/ha [15] | pest or weed control at 500 g/ha [15] | Corn plant response rating (crop injury, 0 = no effect, 100 = complete kill) at 125 g/ha [18] | pest or weed control at 125 g/ha [19]
90%: pest or weed control at 125 g/ha [16] | pest or weed control at 500 g/ha [16] | pest or weed control at 500 g/ha [17] | pest or weed control at 500 g/ha [20]

O=C1NCCC(c2cccc(Cl)c2)C1C(=O)Nc1cccc(F)c1F (centres unmarked) [Compound 36, 4-(3-chlorophenyl)-N-(2,3-difluorophenyl)-2-oxo-3-piperidinecarboxamide]
60%: pest or weed control at 250 g/ha [3] | pest or weed control at 500 g/ha [19]
90%: pest or weed control at 125 g/ha [10] | pest or weed control at 500 g/ha [10] | pest or weed control at 250 g/ha [14] | pest or weed control at 125 g/ha [16] | pest or weed control at 500 g/ha [16] | pest or weed control at 500 g/ha [17] | pest or weed control at 125 g/ha [20] | pest or weed control at 500 g/ha [20]
20%: pest or weed control at 500 g/ha [1]
100 to 102 °C: melting point
80%: pest or weed control at 125 g/ha [17]
30%: pest or weed control at 500 g/ha [2] | pest or weed control at 500 g/ha [6]
0%: pest or weed control at 125 g/ha [1] | pest or weed control at 125 g/ha [2] | pest or weed control at 125 g/ha [4] | pest or weed control at 500 g/ha [4] | pest or weed control at 125 g/ha [5] | pest or weed control at 500 g/ha [5] | pest or weed control at 125 g/ha [6] | plant injury at 125 g/ha [7] | plant injury at 500 g/ha [7] | plant injury at 250 g/ha [8] | pest or weed control at 125 g/ha [9] | pest or weed control at 500 g/ha [9] | pest or weed control at 125 g/ha [11] | pest or weed control at 500 g/ha [11] | pest or weed control at 250 g/ha [12] | pest or weed control at 125 g/ha [13] | pest or weed control at 500 g/ha [13] | pest or weed control at 125 g/ha [15] | pest or weed control at 500 g/ha [15] | Corn plant response rating (crop injury, 0 = no effect, 100 = complete kill) at 125 g/ha [18] | Corn plant response rating (crop injury, 0 = no effect, 100 = complete kill) at 500 g/ha [18] | pest or weed control at 125 g/ha [19]
